Measurements reported in PubChem BioAssay AID602131 (Sanford-Burnham Center for Chemical Genomics, 2011).
Active and inactive are the calls of the source.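 The calls were made as follows: active = IC50 at or below 20 µM; inactive = the rest.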

Each compound was assayed against glucose-6-phosphate dehydrogenase-6-phosphogluconolactonase (PfGluPho), Plasmodium falciparum 3D7 (assay: PfGluPho enzyme inhibitors, SAR follow-up, biochemical, fluorescence intensity, dose response, set 3 (AID 602131)). Conditions: recombinant PfGluPho, NADPH resazurin-diaphorase fluorescence.

Structure (SMILES) | IC50
O=C(NCCNC1CCCCC1)c1ccc2c(c1)NC(=O)c1ccccc1S2 | inactive
CCN(CC)CCCC(C)Nc1ccnc2cc(Cl)ccc12 (centres undefined) | > 80 µM (inactive)
CN(C)c1ccccc1CNC(=O)c1ccc2c(c1)NC(=O)/C(=C/c1ccccc1F)S2 | > 80 µM (inactive)
NC1CCN(C(=O)c2ccc3c(c2)NC(=O)c2ccccc2S3)C1 (centres undefined) | > 80 µM (inactive)
O=C(NCCN1CCOCC1)c1ccc2c(c1)NC(=O)c1ccccc1S2 | > 80 µM (inactive)
O=C(NCCN1CCCCC1)c1ccc2c(c1)NC(=O)c1ccccc1S2 | inactive
CCC(C)N(CCNC(=O)c1ccc2c(c1)NC(=O)c1ccccc1S2)C1CCCCC1 (centres undefined) | 14.1 µM
NCCNC(=O)c1ccc2c(c1)NC(=O)c1ccccc1S2 | > 80 µM (inactive)

The remaining lines, values ahead:

IC50 | Structure (SMILES)
9.23 µM | CCC(C)N1CCCC1CNC(=O)c1ccc2c(c1)NC(=O)c1ccccc1S2 (centres undefined)
6.59 µM | CCN1CCC[C@H]1CNC(=O)c1ccc2c(c1)NC(=O)/C(=C/c1ccccc1F)S2
6.86 µM | CCN(CC)CCNC(=O)c1ccc2c(c1)NC(=O)/C(=C/c1ccccc1F)S2
5.05 µM | CCN1CCC[C@@H]1CNC(=O)c1ccc2c(c1)NC(=O)c1ccccc1S2
> 80 µM (inactive) | CCN1CCCC1CNC(=O)c1ccc2c(c1)NC(=O)C(Cc1ccccc1F)S2 (centres undefined)
0.889 µM | CCN1CCC[C@@H]1CNC(=O)c1ccc2c(c1)NC(=O)/C(=C/c1ccccc1F)S2
> 80 µM (inactive) | CC(C)(C)OC(=O)N1CCCC1CNC(=O)c1ccc2c(c1)NC(=O)/C(=C/c1ccccc1F)S2 (centres undefined)
inactive | CCN1CCC[C@H]1CNC(=O)c1ccc2c(c1)NC(=O)c1ccccc1S2
inactive | NC1CCN(C(=O)c2ccc3c(c2)NC(=O)/C(=C/c2ccccc2F)S3)C1 (centres undefined)
2.39 µM | CCN1CCCC1CNC(=O)c1ccc2c(c1)NC(=O)/C(=C/c1ccc3ccccc3c1)S2 (centres undefined)
1.41 µM | CCN1CCCC1CNC(=O)c1ccc2c(c1)NC(=O)/C(=C/c1ccc(F)cc1)S2 (centres undefined)
